Experimental data as given in the supplement of paper PMC7840683.
± gives the standard deviation of the averaged measurements.

Test system: HepaRG
Assay: LDH release cytotoxicity, % of total lysis control; higher = more cytotoxic
Settings: 48 h
Procedure, shortened: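 Single-lot HepaRG cells on collagen I-coated 96-well plates were exposed for 48 h in duplicate, in serum-free induction medium with 0.5% DMSO, to eight-point half-log series (test chemicals top 100 µM). Total lysis wells received 0.1% Triton X, and LDH leakage into 50 µL spent medium was read as resorufin fluorescence (CytoTox-ONE, Tecan Safire). Percent cytotoxicity was normalized to on-plate vehicle and total lysis controls and averaged over the duplicates.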

Row | SMILES | LDH release cytotoxicity (0.03162 µM) [%] | LDH release cytotoxicity (0.1 µM) [%] | LDH release cytotoxicity (0.3162278 µM) [%] | LDH release cytotoxicity (1 µM) [%] | LDH release cytotoxicity (3.16228 µM) [%] | LDH release cytotoxicity (10 µM) [%] | LDH release cytotoxicity (31.6228 µM) [%] | LDH release cytotoxicity (100 µM) [%] | LDH release cytotoxicity (0.031623 µM) [%] | LDH release cytotoxicity (0.316228 µM) [%] | LDH release cytotoxicity (0.03305 µM) [%] | LDH release cytotoxicity (0.1045 µM) [%] | LDH release cytotoxicity (0.330458 µM) [%] | LDH release cytotoxicity (1.045 µM) [%] | LDH release cytotoxicity (3.30458 µM) [%] | LDH release cytotoxicity (10.45 µM) [%] | LDH release cytotoxicity (33.0458 µM) [%] | LDH release cytotoxicity (104.5 µM) [%]
1 | CC(C)(C)c1ccc(O)c(C(C)(C)C)c1 [2,4-Di-tert-butylphenol] | -2.05 ± 0.42 | -1.71 ± 0.24 | -1.9 ± 1.1 | -2.07 ± 0.9 | -1.83 ± 0.043 | -1.53 ± 0.18 | -0.783 ± 0.87 | 0.8 ± 0.4 | – | – | – | – | – | – | – | – | – | –
2 | CCC(C)(C)c1ccc(O)c(C(C)(C)CC)c1 [2,4-Di-tert-pentylphenol] | 0.622 ± 0.85 | -1.25 ± 0.82 | -0.993 ± 0.16 | -1.77 ± 0.046 | -1.69 ± 0.36 | -1.3 ± 0.39 | -1.19 ± 0.04 | 0.754 ± 0.54 | – | – | – | – | – | – | – | – | – | –
3 | Cc1ccc(N)cc1N [2,4-Diaminotoluene] | – | -0.98 ± 2.2 | – | -2.17 ± 0.74 | -1.86 ± 1.7 | -1.56 ± 0.44 | -1.29 ± 0.18 | -0.394 ± 0.68 | -1.84 ± 0.43 | -1.49 ± 1.2 | – | – | – | – | – | – | – | –
4 | Oc1ccc(Cl)cc1Cl [2,4-Dichlorophenol] | – | – | – | – | – | – | – | – | – | – | -0.867 ± 0.13 | -1.22 ± 0.36 | -1.99 ± 0.46 | -1.67 ± 0.36 | -1.98 ± 0.042 | -1.68 ± 0.079 | -2.38 ± 0.071 | -0.904 ± 0.016
5 | O=C(O)COc1ccc(Cl)cc1Cl [2,4-Dichlorophenoxyacetic acid] | -2.81 ± 0.75 | -3.06 ± 0.11 | -3.35 ± 0.81 | -3.21 ± 0.55 | -3.24 ± 0.42 | -3.79 ± 0.69 | 48.3 ± 0.8 | 69.9 ± 2 | – | – | – | – | – | – | – | – | – | –
6 | O=C(O)CCCOc1ccc(Cl)cc1Cl [2,4-Dichlorophenoxybutyric acid] | -2.25 ± 0.88 | -0.951 ± 0.37 | -1.77 ± 0.11 | -1.33 ± 0.28 | -1.43 ± 0.78 | -0.351 ± 0.14 | -1.14 ± 0.056 | 0.81 ± 0.16 | – | – | – | – | – | – | – | – | – | –
7 | Cc1ccc(O)c(C)c1 [2,4-Dimethylphenol] | -0.236 ± 0.8 | -1.06 ± 0.065 | -0.554 ± 0.3 | -0.084 ± 0.78 | 0.0582 ± 0.56 | -0.172 ± 0.66 | -0.59 ± 0.59 | -0.251 ± 0.47 | – | – | – | – | – | – | – | – | – | –
8 | O=[N+]([O-])c1ccc(O)c([N+](=O)[O-])c1 [2,4-Dinitrophenol] | -0.273 ± 0.077 | -1.23 ± 0.39 | -0.515 ± 0.069 | -1 ± 0.71 | -0.876 ± 0.33 | 0.105 ± 0.71 | 0.264 ± 0.47 | 0.252 ± 0.21 | – | – | – | – | – | – | – | – | – | –
9 | CC(C)(C)c1cc(O)c(C(C)(C)C)cc1O [2,5-Di-tert-butylbenzene-1,4-diol] | -1.42 ± 0.46 | -1.56 ± 0.33 | -1.72 ± 1.2 | -1.69 ± 0.27 | -1.49 ± 0.41 | -1.94 ± 0.31 | -1.04 ± 0.88 | -1.46 ± 0.39 | – | – | – | – | – | – | – | – | – | –
10 | CC(C)(C)OOC(C)(C)CCC(C)(C)OOC(C)(C)C [2,5-Dimethyl-2,5-di-(tert-butylperoxy)hexane] | -1.07 ± 0.59 | -0.939 ± 1 | -0.841 ± 0.2 | -0.347 ± 0.56 | -0.34 ± 0.39 | -0.223 ± 0.53 | 1.22 ± 1.1 | 2.2 ± 1.6 | – | – | – | – | – | – | – | – | – | –
11 | Cc1ccc(C)c(O)c1 [2,5-Dimethylphenol] | -1.02 ± 1 | -1.37 ± 0.38 | -1.74 ± 0.34 | -1.34 ± 0.19 | -1.4 ± 0.44 | -0.854 ± 0.043 | -0.822 ± 0.1 | 0.0909 ± 0.18 | – | – | – | – | – | – | – | – | – | –
12 | CN(C)CCCN(C)CCCN(C)C [2,6,10-Trimethyl-2,6,10-triazaundecane] | -1.25 ± 0.61 | -1.63 ± 0.4 | -2.17 ± 0.18 | -1.73 ± 0.24 | -1.82 ± 0.067 | -1.78 ± 0.98 | -0.82 ± 0.7 | -0.216 ± 0.84 | – | – | – | – | – | – | – | – | – | –
13 | CC(C)(C)c1cccc(C(C)(C)C)c1O [2,6-Di-tert-butylphenol] | -1.46 ± 0.98 | -2.07 ± 0.79 | -1.81 ± 0.93 | -2.85 ± 0.3 | -2.37 ± 0.99 | -2.01 ± 0.62 | -2.37 ± 1.6 | -2.35 ± 1.9 | – | – | – | – | – | – | – | – | – | –
14 | CCc1cccc(CC)c1N [2,6-Diethylaniline] | -1.27 ± 1.1 | -2.24 ± 0.81 | -1.42 ± 0.19 | -0.395 ± 0.46 | -0.592 ± 0.21 | -1.25 ± 1.1 | -0.819 ± 0.47 | -0.482 ± 0.8 | – | – | – | – | – | – | – | – | – | –
15 | Cc1cccc(C)c1N [2,6-Dimethylaniline] | -1.3 ± 1.2 | -0.274 ± 0.54 | -0.695 ± 1.3 | -2 ± 0.2 | -1.29 ± 0.67 | -1.03 ± 0.33 | -0.842 ± 0.55 | 3.28 ± 2.6 | – | – | – | – | – | – | – | – | – | –
16 | Cc1cccc(C)c1O [2,6-Dimethylphenol] | -1.24 ± 1.2 | -0.897 ± 0.56 | -1.931 ± 0.0097 | -1.91 ± 0.97 | -1.66 ± 0.091 | -1.73 ± 0.19 | -0.524 ± 1.1 | 0.122 ± 0.94 | – | – | – | – | – | – | – | – | – | –
17 | CC(C)c1cccc(C(C)C)c1N1C(=O)c2ccc(O)cc2C1=O [2-(2,6-Diisopropylphenyl)-5-hydroxy-1H-isoindole-1,3-dione] | 0.356 ± 0.042 | 0.0666 ± 0.077 | -0.376 ± 0.57 | -0.99 ± 0.87 | -0.278 ± 0.47 | -0.287 ± 0.3 | -0.0632 ± 1 | 0.492 ± 1.2 | – | – | – | – | – | – | – | – | – | –
18 | CCCCOCCOCCO [2-(2-Butoxyethoxy)ethanol] | -0.987 ± 0.27 | -1.94 ± 0.23 | -1.79 ± 0.24 | -2.09 ± 0.25 | -2.29 ± 0.05 | -1.67 ± 0.18 | -1.25 ± 0.3 | -0.813 ± 0.4 | – | – | – | – | – | – | – | – | – | –
19 | CCOCCOCCO [2-(2-Ethoxyethoxy)ethanol] | 0.116 ± 0.16 | -1.88 ± 0.064 | -1.03 ± 0.55 | -1.82 ± 0.14 | -1.06 ± 0.26 | -0.761 ± 0.11 | -0.843 ± 0.34 | -0.504 ± 0.29 | – | – | – | – | – | – | – | – | – | –
20 | CCC(C)c1ccccc1O (stereo not given) [2-(Butan-2-yl)phenol] | – | -1.12 ± 0.63 | – | -2.96 ± 1.4 | -3.27 ± 0.89 | -1.71 ± 1 | -1.22 ± 1.5 | 0.802 ± 0.9 | -0.239 ± 0.71 | -2.25 ± 1.2 | – | – | – | – | – | – | – | –
